# Columns and labels:
# Test in all cases: relative viability (nuclei count vs DMSO), 5 days (fraction); higher = more cells survive
# NCI-H1563 = system: NCI-H1563
# Outline: (§1)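 Values are medians from duplicate plates. Each reflects relative viability, defined as the nuclei count of treated wells over that of vehicle wells. Lung cancer cell lines in 1536-well plates were pin-tool dosed one day after seeding with one drug alone or with a fixed anchor-drug dose plus five library-drug doses (not always all listed) in √10 steps, then fixed, stained and imaged at 4× after 5 days.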
# NCI-H1650 = system: NCI-H1650
# Outline: as §1
# NCI-H2085 = system: NCI-H2085
# Outline: as §1
# EPLC-272H = system: EPLC-272H
# Outline: as §1
# SW 900 = system: SW 900
# Outline: as §1
# RERF-LC-KJ = system: RERF-LC-KJ
# Outline: as §1
# NCI-H1793 = system: NCI-H1793
# Outline: as §1
# ABC-1 = system: ABC-1
# Outline: as §1
# LOU-NH91 = system: LOU-NH91
# Outline: as §1
# NCI-H1993 = system: NCI-H1993
# Outline: as §1
# NCI-H647 = system: NCI-H647
# Outline: as §1
# NCI-H3122 = system: NCI-H3122
# Outline: as §1
# NCI-H520 = system: NCI-H520
# Outline: as §1
# 201T = system: 201T
# Outline: as §1
# EKVX = system: EKVX
# Outline: as §1
# NCI-H2405 = system: NCI-H2405
# Outline: as §1
# NCI-H2170 = system: NCI-H2170
# Outline: as §1
# HCC-44 = system: HCC-44
# Outline: as §1
# COR-L23 = system: COR-L23
# Outline: as §1
# NCI-H2347 = system: NCI-H2347
# Outline: as §1
# NCI-H2023 = system: NCI-H2023
# Outline: as §1
# NCI-H1734 = system: NCI-H1734
# Outline: as §1
# PC-14 = system: PC-14
# Outline: as §1
# NCI-H441 = system: NCI-H441
# Outline: as §1
compound,measurement,setting,value
C[C@@H]1CN(CC(=O)Nc2ccc3c(c2)Cc2cccc(-c4cc(=O)cc(N5CCOCC5)o4)c2S3)C[C@H](C)O1 + N=C(N)NC(=N)NCCc1ccccc1 [Phenformin] (partner 250 µM),relative viability,NCI-H1563; first compound 0.04 µM,0.692
same,relative viability,NCI-H1563; first compound 0.1265 µM,0.636
same,relative viability,NCI-H1563; first compound 0.4 µM,0.659
same,relative viability,NCI-H1563; first compound 4 µM,0.677
same,relative viability,NCI-H1650; first compound 0.04 µM,0.406
same,relative viability,NCI-H1650; first compound 0.1265 µM,0.431
same,relative viability,NCI-H1650; first compound 0.4 µM,0.37
same,relative viability,NCI-H1650; first compound 4 µM,0.347
same,relative viability,NCI-H2085; first compound 0.04 µM,0.763
same,relative viability,NCI-H2085; first compound 0.1265 µM,0.732
same,relative viability,NCI-H2085; first compound 0.4 µM,0.694
same,relative viability,NCI-H2085; first compound 4 µM,0.595
same,relative viability,EPLC-272H; first compound 0.04 µM,0.278
same,relative viability,EPLC-272H; first compound 0.1265 µM,0.274
same,relative viability,EPLC-272H; first compound 0.4 µM,0.307
same,relative viability,EPLC-272H; first compound 4 µM,0.271
same,relative viability,SW 900; first compound 0.04 µM,0.466
same,relative viability,SW 900; first compound 0.1265 µM,0.724
same,relative viability,SW 900; first compound 0.4 µM,0.669
same,relative viability,SW 900; first compound 4 µM,0.488
same,relative viability,RERF-LC-KJ; first compound 0.04 µM,0.422
same,relative viability,RERF-LC-KJ; first compound 0.1265 µM,0.368
same,relative viability,RERF-LC-KJ; first compound 0.4 µM,0.379
same,relative viability,RERF-LC-KJ; first compound 4 µM,0.323
same,relative viability,NCI-H1793; first compound 0.04 µM,0.347
same,relative viability,NCI-H1793; first compound 0.1265 µM,0.339
same,relative viability,NCI-H1793; first compound 0.4 µM,0.272
same,relative viability,NCI-H1793; first compound 4 µM,0.273
same,relative viability,ABC-1; first compound 0.1265 µM,0.256
same,relative viability,ABC-1; first compound 0.4 µM,0.273
same,relative viability,ABC-1; first compound 4 µM,0.236
same,relative viability,LOU-NH91; first compound 0.04 µM,0.792
same,relative viability,LOU-NH91; first compound 0.1265 µM,0.691
same,relative viability,LOU-NH91; first compound 0.4 µM,0.696
same,relative viability,LOU-NH91; first compound 4 µM,0.667
same,relative viability,NCI-H1993; first compound 0.04 µM,0.532
same,relative viability,NCI-H1993; first compound 0.1265 µM,0.497
same,relative viability,NCI-H1993; first compound 0.4 µM,0.481
same,relative viability,NCI-H1993; first compound 4 µM,0.498
same,relative viability,NCI-H647; first compound 0.04 µM,0.472
same,relative viability,NCI-H647; first compound 0.1265 µM,0.456
same,relative viability,NCI-H647; first compound 0.4 µM,0.606
same,relative viability,NCI-H647; first compound 4 µM,0.504
same,relative viability,NCI-H3122; first compound 0.04 µM,0.409
same,relative viability,NCI-H3122; first compound 0.1265 µM,0.387
same,relative viability,NCI-H3122; first compound 0.4 µM,0.365
same,relative viability,NCI-H3122; first compound 4 µM,0.301
same,relative viability,NCI-H520; first compound 0.04 µM,0.464
same,relative viability,NCI-H520; first compound 0.1265 µM,0.732
same,relative viability,NCI-H520; first compound 0.4 µM,0.312
same,relative viability,NCI-H520; first compound 4 µM,0.452
same,relative viability,201T; first compound 0.04 µM,0.439
same,relative viability,201T; first compound 0.1265 µM,0.423
same,relative viability,201T; first compound 0.4 µM,0.477
same,relative viability,201T; first compound 4 µM,0.517
same,relative viability,EKVX; first compound 0.04 µM,0.23
same,relative viability,EKVX; first compound 0.1265 µM,0.25
same,relative viability,EKVX; first compound 0.4 µM,0.234
same,relative viability,EKVX; first compound 4 µM,0.221
same,relative viability,NCI-H2405; first compound 0.04 µM,0.402
same,relative viability,NCI-H2405; first compound 0.1265 µM,0.411
same,relative viability,NCI-H2405; first compound 0.4 µM,0.379
same,relative viability,NCI-H2405; first compound 4 µM,0.487
same,relative viability,NCI-H2170; first compound 0.04 µM,0.406
same,relative viability,NCI-H2170; first compound 0.1265 µM,0.43
same,relative viability,NCI-H2170; first compound 0.4 µM,0.44
same,relative viability,NCI-H2170; first compound 4 µM,0.412
same,relative viability,HCC-44; first compound 0.04 µM,0.176
same,relative viability,HCC-44; first compound 0.1265 µM,0.233
same,relative viability,HCC-44; first compound 0.4 µM,0.161
same,relative viability,HCC-44; first compound 4 µM,0.114
same,relative viability,COR-L23; first compound 0.04 µM,0.435
same,relative viability,COR-L23; first compound 0.1265 µM,0.476
same,relative viability,COR-L23; first compound 0.4 µM,0.499
same,relative viability,COR-L23; first compound 4 µM,0.439
same,relative viability,NCI-H2347; first compound 0.04 µM,0.412
same,relative viability,NCI-H2347; first compound 0.1265 µM,0.547
same,relative viability,NCI-H2347; first compound 0.4 µM,0.368
same,relative viability,NCI-H2347; first compound 4 µM,0.449
same,relative viability,NCI-H2023; first compound 0.04 µM,0.458
same,relative viability,NCI-H2023; first compound 0.1265 µM,0.432
same,relative viability,NCI-H2023; first compound 0.4 µM,0.385
same,relative viability,NCI-H2023; first compound 4 µM,0.344
same,relative viability,NCI-H1734; first compound 0.04 µM,0.429
same,relative viability,NCI-H1734; first compound 0.1265 µM,0.392
same,relative viability,NCI-H1734; first compound 0.4 µM,0.366
same,relative viability,NCI-H1734; first compound 4 µM,0.399
same,relative viability,PC-14; first compound 0.04 µM,0.377
same,relative viability,PC-14; first compound 0.1265 µM,0.528
same,relative viability,PC-14; first compound 0.4 µM,0.556
same,relative viability,PC-14; first compound 4 µM,0.574
same,relative viability,NCI-H441; first compound 0.04 µM,0.913
same,relative viability,NCI-H441; first compound 0.1265 µM,0.897
same,relative viability,NCI-H441; first compound 0.4 µM,0.682
same,relative viability,NCI-H441; first compound 4 µM,0.722
CC(C)Oc1cc(Nc2nc(N[C@@H](C)c3ccc(F)cn3)ncc2Cl)n[nH]1 [AZ23] + CCNC(=O)c1noc(-c2cc(C(C)C)c(O)cc2O)c1-c1ccc(CN2CCOCC2)cc1 [Luminespib] (partner 0.01 µM),relative viability,NCI-H1563; first compound 0.01 µM,0.544
same,relative viability,NCI-H1563; first compound 0.03162 µM,0.571
same,relative viability,NCI-H1563; first compound 0.3162 µM,0.596
same,relative viability,NCI-H1650; first compound 0.03162 µM,0.202
same,relative viability,NCI-H1650; first compound 0.3162 µM,0.195
same,relative viability,NCI-H2085; first compound 0.01 µM,0.321
same,relative viability,NCI-H2085; first compound 0.03162 µM,0.422
same,relative viability,NCI-H2085; first compound 0.3162 µM,0.463
same,relative viability,EPLC-272H; first compound 0.01 µM,0.15
same,relative viability,EPLC-272H; first compound 0.03162 µM,0.203
same,relative viability,EPLC-272H; first compound 0.3162 µM,0.551
same,relative viability,SW 900; first compound 0.01 µM,0.174
same,relative viability,SW 900; first compound 0.03162 µM,0.143
same,relative viability,SW 900; first compound 0.3162 µM,0.174
same,relative viability,RERF-LC-KJ; first compound 0.01 µM,1.34
same,relative viability,RERF-LC-KJ; first compound 0.03162 µM,1.43
same,relative viability,RERF-LC-KJ; first compound 0.3162 µM,1.38
same,relative viability,NCI-H1793; first compound 0.01 µM,0.158
same,relative viability,NCI-H1793; first compound 0.03162 µM,0.194
same,relative viability,NCI-H1793; first compound 0.3162 µM,0.143
same,relative viability,ABC-1; first compound 0.03162 µM,0.707
same,relative viability,ABC-1; first compound 0.3162 µM,0.624
same,relative viability,LOU-NH91; first compound 0.01 µM,0.387
same,relative viability,LOU-NH91; first compound 0.03162 µM,0.349
same,relative viability,LOU-NH91; first compound 0.3162 µM,0.324
same,relative viability,NCI-H1993; first compound 0.01 µM,0.785
same,relative viability,NCI-H1993; first compound 0.03162 µM,0.881
same,relative viability,NCI-H1993; first compound 0.3162 µM,0.854
same,relative viability,NCI-H647; first compound 0.01 µM,0.125
same,relative viability,NCI-H647; first compound 0.03162 µM,0.107
same,relative viability,NCI-H647; first compound 0.3162 µM,0.149
same,relative viability,NCI-H3122; first compound 0.01 µM,0.111
same,relative viability,NCI-H3122; first compound 0.03162 µM,0.0892
same,relative viability,NCI-H3122; first compound 0.3162 µM,0.0986
same,relative viability,NCI-H520; first compound 0.01 µM,0.236
same,relative viability,NCI-H520; first compound 0.03162 µM,0.22
same,relative viability,NCI-H520; first compound 0.3162 µM,0.212
same,relative viability,201T; first compound 0.01 µM,1.15
same,relative viability,201T; first compound 0.03162 µM,1.02
same,relative viability,201T; first compound 0.3162 µM,1.02
same,relative viability,EKVX; first compound 0.01 µM,0.861
same,relative viability,EKVX; first compound 0.03162 µM,0.84
same,relative viability,EKVX; first compound 0.3162 µM,0.924
same,relative viability,NCI-H2405; first compound 0.01 µM,0.717
same,relative viability,NCI-H2405; first compound 0.03162 µM,0.679
same,relative viability,NCI-H2405; first compound 0.3162 µM,0.661
same,relative viability,NCI-H2170; first compound 0.01 µM,1.01
same,relative viability,NCI-H2170; first compound 0.03162 µM,0.739
same,relative viability,NCI-H2170; first compound 0.3162 µM,0.822
same,relative viability,HCC-44; first compound 0.01 µM,0.863
same,relative viability,HCC-44; first compound 0.03162 µM,1.22
same,relative viability,HCC-44; first compound 0.3162 µM,1.22
same,relative viability,COR-L23; first compound 0.01 µM,0.405
same,relative viability,COR-L23; first compound 0.03162 µM,0.814
same,relative viability,COR-L23; first compound 0.3162 µM,0.869
same,relative viability,NCI-H2347; first compound 0.01 µM,0.486
same,relative viability,NCI-H2347; first compound 0.03162 µM,0.62
same,relative viability,NCI-H2347; first compound 0.3162 µM,0.41
same,relative viability,NCI-H2023; first compound 0.03162 µM,0.829
same,relative viability,NCI-H2023; first compound 0.3162 µM,0.674
same,relative viability,NCI-H1734; first compound 0.01 µM,0.184
same,relative viability,NCI-H1734; first compound 0.03162 µM,0.181
same,relative viability,NCI-H1734; first compound 0.3162 µM,0.169
same,relative viability,PC-14; first compound 0.03162 µM,0.21
same,relative viability,PC-14; first compound 0.3162 µM,0.21
same,relative viability,NCI-H441; first compound 0.01 µM,0.28
same,relative viability,NCI-H441; first compound 0.03162 µM,0.344
same,relative viability,NCI-H441; first compound 0.3162 µM,0.376
